Laboratory results as given in US4216314A, “N-Aryloxypropyl-N'-dioxopyrimidyl-α,ω-alkylenediamines” (Cassella Farbwerke Mainkur Aktiengesellschaft, priority 1977, dated 1980).

Columns and labels:
[1] = molecular target: T1, β1 -receptors of the heart (Canis lupus familiaris, UniProt P79148); test: inhibition of isoproterenol effect on dp/dtmax of left ventricle (β1-receptors of the heart) in anaesthetised dogs; type: in vivo, mongrel dogs; conditions: for ED50: dog, cumulative intravenous dose for 50% inhibition of effect of isoproterenol (0.5 gamma/kg i.v.) on dp/dtmax, chloralose/urethane/morphine anaesthesia, read-out: ED50 β1 mg/kg intravenously; for ratio of the doses, ED50 β2 / ED50 β1 (head is drawing 43): number significantly >1 indicates cardioselective action
T1 construct: from tissue; host or cells: heart (left ventricle) of anaesthetised mongrel dogs, in vivo
T1 sequence (P79148 whole entry): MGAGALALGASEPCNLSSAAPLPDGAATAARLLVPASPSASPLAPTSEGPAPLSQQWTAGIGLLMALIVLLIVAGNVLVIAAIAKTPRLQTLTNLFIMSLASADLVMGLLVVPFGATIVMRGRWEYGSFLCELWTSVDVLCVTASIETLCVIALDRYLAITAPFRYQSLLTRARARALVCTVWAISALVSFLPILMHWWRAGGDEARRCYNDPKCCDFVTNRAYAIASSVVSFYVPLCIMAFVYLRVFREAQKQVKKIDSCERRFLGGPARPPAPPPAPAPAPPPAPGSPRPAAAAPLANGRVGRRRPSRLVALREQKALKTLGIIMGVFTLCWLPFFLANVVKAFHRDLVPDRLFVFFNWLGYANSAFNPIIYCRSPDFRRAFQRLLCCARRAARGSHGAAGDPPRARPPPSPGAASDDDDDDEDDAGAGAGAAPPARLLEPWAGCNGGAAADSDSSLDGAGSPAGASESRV
Method: (§1) Pharmacological tests for activity towards β1 -receptors and β2 -receptors were carried out on mongrel dogs of both sexes under chloralose/urethane/morphine anaesthesia. The pressure in the left ventricle was recorded by means of a catheter tip manometer (micro-tip pressure transducer, MILLAR Instruments, Houston, Texas). The pressure signal was continuously differentiated by means of an analog computer and recorded (BRUSH Instruments, Cleveland, Ohio). The flow of blood through an arteria femoralis was measured and recorded by means of an electromagnetic flow meter (Messrs. STATHAM, Model M4000). Injection catheters were fastened to a peripheral vein and into a branch of the a. femoralis.
(§2) Isoproterenol was injected intravenously (0.5 gamma/kg) and intraarterially (0.05 gamma/kg). The effect of the isoproterenol on the dp/dtmax in the case of intravenous administration was considered to be an expression of the stimulation of the β1 -receptors of the heart. The change in the flow of blood through the arteria femoralis in the case of intraarterial injection of isoproterenol was considered to be an expression of the stimulation of the peripheral β2 -receptors (D-DUNLOP and R. G. SHANKS, "Selective Blockade of Adrenoceptive beta-Receptors in the Heart", Br. J. Pharmac. Chemother., 32, 201 to 218, 1968). The percentage inhibition of the effects of isoproterenol with respect to the cumulative doses of the test substance was determined. The cumulative doses of the test substance which leads to 50% inhibition of the isoproterenol effects (=ED50) was determined by means of a modified probit analysis. Substances which inhibit the isoproterenol effects on the dp/dtmax (β1) at a low dose and only decrease the change in the flow of blood through the a. femoralis at higher doses (β2) preferentially act on the β1 -receptors of the heart. The ratio of the doses. [formula] should be as high as possible.

peripheral β2 -receptors = molecular target: T2, peripheral β2 -receptors (Canis lupus familiaris, UniProt P54833); test: inhibition of isoproterenol effect on blood flow through arteria femoralis (peripheral β2-receptors) in anaesthetised dogs; type: in vivo, mongrel dogs; conditions: dog; cumulative intravenous dose for 50% inhibition of effect of isoproterenol (0.05 gamma/kg intraarterially) on blood flow through a. femoralis; chloralose/urethane/morphine anaesthesia; read-out: ED50 β2 mg/kg intraveneously
T2 construct: from tissue; host or cells: femoral arterial bed of anaesthetised mongrel dogs, in vivo
T2 sequence (P54833 whole entry): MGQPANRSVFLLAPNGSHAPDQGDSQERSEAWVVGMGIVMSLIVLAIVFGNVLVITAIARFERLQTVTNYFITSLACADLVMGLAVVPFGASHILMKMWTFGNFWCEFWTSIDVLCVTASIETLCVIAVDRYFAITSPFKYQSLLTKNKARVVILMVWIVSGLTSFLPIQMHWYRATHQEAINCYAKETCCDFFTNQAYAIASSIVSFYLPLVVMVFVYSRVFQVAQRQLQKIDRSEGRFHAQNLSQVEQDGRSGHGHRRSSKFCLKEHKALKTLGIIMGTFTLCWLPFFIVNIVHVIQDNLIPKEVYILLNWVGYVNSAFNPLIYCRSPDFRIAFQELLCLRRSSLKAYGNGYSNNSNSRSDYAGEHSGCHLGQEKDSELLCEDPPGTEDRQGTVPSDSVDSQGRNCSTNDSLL
Method: as §1, §2

Structure (SMILES) | ED50 [1] | ratio of the doses, ED50 β2 / ED50 β1 (head is drawing 43) [1] | ED50 (peripheral β2 -receptors)
COc1ccc(OCC(O)CNCCNc2cc(=O)n(C)c(=O)n2C)cc1 (stereo not drawn) [Example 11] | 0.0157 mg/kg | 341 | 5.36 mg/kg
CCCOc1ccc(OCC(O)CNCCNc2cc(=O)n(C)c(=O)n2C)cc1 (stereo not drawn) [Example 12] | 0.0061 mg/kg | > 1,000 | > 7.3 mg/kg
CCCCOc1ccc(OCC(O)CNCCNc2cc(=O)n(C)c(=O)n2C)cc1 (stereo not drawn) [Example 13] | 0.0096 mg/kg | > 1,000 | > 9.6 mg/kg
Cn1c(NCCNCC(O)COc2ccc(OCCO)cc2)cc(=O)n(C)c1=O (stereo not drawn) [Example 14] | 0.0291 mg/kg | 303 | 8.83 mg/kg
Cn1c(NCCNCC(O)COc2ccc(OCc3ccccc3)cc2)cc(=O)n(C)c1=O (stereo not drawn) [Example 19] | 0.0139 mg/kg | 322 | 4.48 mg/kg
